Activity calls are given as the source filed them. The rule behind the calls is not given here.
Experiments:
DNA [1] = test: Binding affinity to calf thymus DNA assessed as change in melting temperature at 0.25 drug/DNA ratio by spectrophotometer analysis; assay type: nucleic-acid assay; conditions: Bos taurus
DNA [2] = test: Binding affinity to calf thymus DNA assessed as hypochromic effect at 20 uM by UV/Vis spectra analysis; assay type: nucleic-acid assay; conditions: Bos taurus
HeLa [3] = test: Cell cycle arrest in human HeLa cells assessed as accumulation in S phase after 24 hrs using propidium iodide staining by flow cytometry; assay type: functional, cell-based
SK-BR-3 [4] = test: Induction of apoptosis in human SKBR3 cells at 10 uM after 48 hrs using propidium iodide/Annexin-V staining by flow cytometry relative to control; assay type: functional
HeLa [5] = test: Cell cycle arrest in human HeLa cells assessed as accumulation in S phase at 5 uM after 48 hrs using propidium iodide staining by flow cytometry relative to control; assay type: functional
HeLa [6] = test: Cell cycle arrest in human HeLa cells assessed as accumulation in G1 phase at 5 uM after 48 hrs using propidium iodide staining by flow cytometry relative to control; assay type: functional
HeLa [7] = test: Cell cycle arrest in human HeLa cells assessed as accumulation in S phase at 10 uM after 24 hrs using propidium iodide staining by flow cytometry relative to control; assay type: functional
HeLa [8] = test: Cell cycle arrest in human HeLa cells assessed as accumulation in G1 phase at 10 uM after 24 hrs using propidium iodide staining by flow cytometry relative to control; assay type: functional
HeLa [9] = test: Cell cycle arrest in human HeLa cells assessed as accumulation in G2/M phase at 5 uM after 24 hrs using propidium iodide staining by flow cytometry relative to control; assay type: functional
HeLa [10] = test: Cell cycle arrest in human HeLa cells assessed as accumulation in sub-G1 phase at 5 uM after 24 hrs using propidium iodide staining by flow cytometry relative to control; assay type: functional
MIA PaCa-2 [11] = test: Cell cycle arrest in human MIAPaCa2 cells assessed as accumulation in G2/M phase at 10 uM after 48 hrs using propidium iodide staining by flow cytometry relative to control; assay type: functional
MIA PaCa-2 [12] = test: Cell cycle arrest in human MIAPaCa2 cells assessed as accumulation in G1 phase at 10 uM after 48 hrs using propidium iodide staining by flow cytometry relative to control; assay type: functional
MIA PaCa-2 [13] = test: Cell cycle arrest in human MIAPaCa2 cells assessed as accumulation in G1 phase at 5 uM after 48 hrs using propidium iodide staining by flow cytometry relative to control; assay type: functional
MIA PaCa-2 [14] = test: Cell cycle arrest in human MIAPaCa2 cells assessed as accumulation in sub-G1 phase at 5 uM after 24 hrs using propidium iodide staining by flow cytometry relative to control; assay type: functional
SK-BR-3 [15] = test: Cell cycle arrest in human SKBR3 cells assessed as accumulation in sub-G1 phase at 10 uM after 48 hrs using propidium iodide staining by flow cytometry relative to control; assay type: functional
SK-BR-3 [16] = test: Cell cycle arrest in human SKBR3 cells assessed as accumulation in G2/M phase at 5 uM after 48 hrs using propidium iodide staining by flow cytometry relative to control; assay type: functional
SK-BR-3 [17] = test: Cell cycle arrest in human SKBR3 cells assessed as accumulation in S phase at 5 uM after 48 hrs using propidium iodide staining by flow cytometry relative to control; assay type: functional
SK-BR-3 [18] = test: Cell cycle arrest in human SKBR3 cells assessed as accumulation in sub-G1 phase at 5 uM after 48 hrs using propidium iodide staining by flow cytometry relative to control; assay type: functional
SK-BR-3 [19] = test: Cell cycle arrest in human SKBR3 cells assessed as accumulation in G2/M phase at 10 uM after 24 hrs using propidium iodide staining by flow cytometry relative to control; assay type: functional
SK-BR-3 [20] = test: Cell cycle arrest in human SKBR3 cells assessed as accumulation in S phase at 10 uM after 24 hrs using propidium iodide staining by flow cytometry relative to control; assay type: functional
SW-620 [21] = test: Cell cycle arrest in human SW620 cells assessed as accumulation in S phase at 10 uM after 48 hrs using propidium iodide staining by flow cytometry relative to control; assay type: functional
SW-620 [22] = test: Cell cycle arrest in human SW620 cells assessed as accumulation in G2/M phase at 5 uM after 48 hrs using propidium iodide staining by flow cytometry relative to control; assay type: functional
SW-620 [23] = test: Cell cycle arrest in human SW620 cells assessed as accumulation in S phase at 5 uM after 48 hrs using propidium iodide staining by flow cytometry relative to control; assay type: functional
SW-620 [24] = test: Cell cycle arrest in human SW620 cells assessed as accumulation in S phase at 10 uM after 24 hrs using propidium iodide staining by flow cytometry relative to control; assay type: functional
SW-620 [25] = test: Cell cycle arrest in human SW620 cells assessed as accumulation in G1 phase at 10 uM after 24 hrs using propidium iodide staining by flow cytometry relative to control; assay type: functional
SW-620 [26] = test: Cell cycle arrest in human SW620 cells assessed as accumulation in G1 phase at 5 uM after 24 hrs using propidium iodide staining by flow cytometry relative to control; assay type: functional
SW-620 [27] = test: Cell cycle arrest in human SW620 cells assessed as accumulation in sub-G1 phase at 5 uM after 24 hrs using propidium iodide staining by flow cytometry relative to control; assay type: functional
SW-620 [28] = test: Antiproliferative activity against human SW620 cells after 72 hrs by MTT assay; assay type: functional, cell-based; conditions: SW-620, 72 h; for CC50: read-out: LC50 (the source's name)
[29] = biological target: T1, DNA topoisomerase 1 (Homo sapiens) (UniProt P11387); test: Inhibition of human topoisomerase 1-mediated supercoiled pUC19 DNA relaxation at 1 to 50 uM after 45 mins by agarose gel electrophoresis
T1 sequence (whole entry): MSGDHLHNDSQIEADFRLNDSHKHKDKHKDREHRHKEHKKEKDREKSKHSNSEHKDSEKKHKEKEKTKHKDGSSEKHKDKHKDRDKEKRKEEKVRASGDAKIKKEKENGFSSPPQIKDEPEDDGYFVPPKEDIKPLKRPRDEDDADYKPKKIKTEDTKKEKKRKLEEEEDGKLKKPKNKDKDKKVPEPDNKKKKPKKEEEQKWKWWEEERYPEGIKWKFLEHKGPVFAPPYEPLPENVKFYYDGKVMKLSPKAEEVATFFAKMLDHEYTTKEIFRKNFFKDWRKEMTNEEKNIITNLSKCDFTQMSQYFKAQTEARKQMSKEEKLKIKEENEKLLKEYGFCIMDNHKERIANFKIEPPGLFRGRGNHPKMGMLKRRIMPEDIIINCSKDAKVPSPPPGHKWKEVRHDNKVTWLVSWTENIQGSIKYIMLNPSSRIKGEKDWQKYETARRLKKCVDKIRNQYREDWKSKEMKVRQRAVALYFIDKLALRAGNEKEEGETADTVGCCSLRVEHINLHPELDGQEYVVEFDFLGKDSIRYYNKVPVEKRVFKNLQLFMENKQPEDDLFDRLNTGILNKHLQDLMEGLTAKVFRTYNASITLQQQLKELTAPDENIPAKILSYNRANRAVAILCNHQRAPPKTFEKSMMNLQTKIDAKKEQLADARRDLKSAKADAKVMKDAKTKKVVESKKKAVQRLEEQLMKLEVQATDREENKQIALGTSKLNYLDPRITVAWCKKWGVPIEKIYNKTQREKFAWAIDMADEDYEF

MIA PaCa-2 [30] = test: Induction of apoptosis in human MIAPaCa2 cells at 10 uM after 24 hrs using propidium iodide/Annexin-V staining by flow cytometry relative to control; assay type: functional

Which ΔTm (DNA [1]) does the source give for Cl.Cl.c1cc(-c2nc3ccc(C4=NCCN4)cc3s2)cc(-c2nc3ccc(C4=NCCN4)cc3s2)c1 here?
Its ΔTm is 12.8 °C.

What about the Activity (DNA [2]) of the same compound?
The Activity was “Active”.

What about the Activity (HeLa [3]) of the same compound?
Its Activity is “Dose-dependent effect”.

What about the Activity (SK-BR-3 [4]) of the same compound?
The Activity was 75%.

What about the Activity (HeLa [5]) of the same compound?
The Activity was 39.3%.

And the Activity (HeLa [6])?
The Activity was 47.5%.

What about the Activity (HeLa [7]) of the same compound?
Its Activity is 66.3%.

And the Activity (HeLa [8])?
The Activity was 31.7%.

And the Activity (HeLa [9])?
Its Activity is 24%.

What about the Activity (HeLa [10]) of the same compound?
Its Activity is 14.4%.

What about the Activity (MIA PaCa-2 [11]) of the same compound?
The Activity was 8.6%.

And the Activity (MIA PaCa-2 [12])?
The Activity was 42.8%.

And the Activity (MIA PaCa-2 [13])?
The Activity was 52.1%.

What about the Activity (MIA PaCa-2 [14]) of the same compound?
Its Activity is 17.7%.

What about the Activity (SK-BR-3 [15]) of the same compound?
The Activity was 12.5%.

And the Activity (SK-BR-3 [16])?
Its Activity is 21.1%.

And the Activity (SK-BR-3 [17])?
Its Activity is 44%.

What about the Activity (SK-BR-3 [18]) of the same compound?
The Activity was 21.6%.

What about the Activity (SK-BR-3 [19]) of the same compound?
Its Activity is 17.8%.

And the Activity (SK-BR-3 [20])?
The Activity was 62.1%.

And the Activity (SW-620 [21])?
Its Activity is 69.6%.

What about the Activity (SW-620 [22]) of the same compound?
The Activity was 14.7%.

And the Activity (SW-620 [23])?
The Activity was 48.6%.

What about the Activity (SW-620 [24]) of the same compound?
The Activity was 65.6%.

And the Activity (SW-620 [25])?
The Activity was 29.9%.

And the Activity (SW-620 [26])?
The Activity was 45.3%.

What about the Activity (SW-620 [27]) of the same compound?
Its Activity is 13.5%.

And the IC50 (SW-620 [28])?
The IC50 was 0.47 µM.

What about the CC50 (SW-620 [28]) of the same compound?
Its CC50 is 6.19 µM.

Which inhibition [29] does the source give for Cl.Cl.c1cc2nc(-c3ccc(-c4nc5ccc(C6=NCCN6)cc5s4)cc3)sc2cc1C1=NCCN1 here?
Its inhibition is “Active”.

What about the ΔTm (DNA [1]) of the same compound?
The ΔTm was 3.9 °C.

And the Activity (DNA [2])?
Its Activity is “Active”.

And the Activity (MIA PaCa-2 [30])?
Its Activity is 5%.

What about the Activity (SK-BR-3 [4]) of the same compound?
Its Activity is 15%.

What about the Activity (HeLa [5]) of the same compound?
Its Activity is 49.6%.

What about the Activity (HeLa [6]) of the same compound?
The Activity was 31.9%.

What about the Activity (HeLa [7]) of the same compound?
The Activity was 58.7%.

What about the Activity (HeLa [8]) of the same compound?
The Activity was 34.2%.

What about the Activity (HeLa [9]) of the same compound?
Its Activity is 13.4%.

What about the Activity (HeLa [10]) of the same compound?
Its Activity is 9.9%.

And the Activity (MIA PaCa-2 [11])?
The Activity was 18.4%.

And the Activity (MIA PaCa-2 [12])?
Its Activity is 40.6%.

And the Activity (MIA PaCa-2 [13])?
The Activity was 45.9%.

And the Activity (MIA PaCa-2 [14])?
The Activity was 34.4%.

And the Activity (SK-BR-3 [15])?
Its Activity is 32.1%.

And the Activity (SK-BR-3 [16])?
The Activity was 13.8%.

And the Activity (SK-BR-3 [17])?
Its Activity is 32.6%.

And the Activity (SK-BR-3 [18])?
Its Activity is 27.5%.

And the Activity (SK-BR-3 [19])?
Its Activity is 14.5%.

What about the Activity (SK-BR-3 [20]) of the same compound?
The Activity was 39.1%.

What about the IC50 (SW-620 [28]) of the same compound?
Its IC50 is 7.65 µM.

And the CC50 (SW-620 [28])?
The CC50 was over 100 µM.

— ChEMBL document CHEMBL2380196, “New anticancer active and selective phenylene-bisbenzothiazoles: synthesis, antiproliferative evaluation and DNA binding” (Eur J Med Chem, 2013)
